From PubChem BioAssay AID2060503 (Molecular Pharmacology Branch, DTP, NCI, 2025)

System: 817829-284-R-J1-PDC complex spheroids, viability
Assay: Anticancer human tumor 817829-284-R-J1-PDC patient-derived colon adenocarcinoma cell line growth inhibition [GQUAD]
Settings: for IC50: curve of first compound; for viability, T/C: stronger effect = lower value; active = viability on the fitted dose curve at most 10% of control; inactive = the rest
Summary of the method: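 Viability of tumor cells grown as complex spheroids with endothelial and stromal cells, exposed to drug combinations. Top concentration at or near clinical Cmax (else 10 microM), diluted in half-log increments.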

[1] = second compound 0.0316 µM, first compound 0.0316 µM
[2] = second compound 0.0316 µM, first compound 0.1 µM
[3] = second compound 0.0316 µM, first compound 0.316 µM
[4] = second compound 0.0316 µM, first compound 1 µM
[5] = second compound 0.0316 µM, first compound 3.16 µM
[6] = second compound 0.0316 µM, first compound 10 µM
[7] = second compound 0.1 µM, first compound 0.0316 µM
[8] = second compound 0.1 µM, first compound 0.1 µM
[9] = second compound 0.1 µM, first compound 0.316 µM
[10] = second compound 0.1 µM, first compound 1 µM
[11] = second compound 0.1 µM, first compound 3.16 µM
[12] = second compound 0.1 µM, first compound 10 µM
[13] = second compound 0.316 µM, first compound 0.0316 µM
[14] = second compound 0.316 µM, first compound 0.1 µM
[15] = second compound 0.316 µM, first compound 0.316 µM
[16] = second compound 0.316 µM, first compound 1 µM
[17] = second compound 0.316 µM, first compound 3.16 µM
[18] = second compound 0.316 µM, first compound 10 µM
[19] = second compound 1 µM, first compound 0.0316 µM
[20] = second compound 1 µM, first compound 0.1 µM
[21] = second compound 1 µM, first compound 0.316 µM
[22] = second compound 1 µM, first compound 1 µM
[23] = second compound 1 µM, first compound 3.16 µM
[24] = second compound 1 µM, first compound 10 µM
[25] = second compound 3.16 µM, first compound 0.0316 µM
[26] = second compound 3.16 µM, first compound 0.1 µM
[27] = second compound 3.16 µM, first compound 0.316 µM
[28] = second compound 3.16 µM, first compound 1 µM
[29] = second compound 3.16 µM, first compound 3.16 µM
[30] = second compound 3.16 µM, first compound 10 µM
[31] = second compound 10 µM, first compound 0.0316 µM
[32] = second compound 10 µM, first compound 0.1 µM
[33] = second compound 10 µM, first compound 0.316 µM
[34] = second compound 10 µM, first compound 1 µM
[35] = second compound 10 µM, first compound 3.16 µM
[36] = second compound 10 µM, first compound 10 µM
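Note: spheroids exposed to agents for 7 days before readout.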
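Throughout, for viability, T/C: percent viability relative to DMSO vehicle control taken as 100%.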

CC(=O)O[C@H]1C(=O)[C@@]2(C)[C@H]([C@H](OC(=O)c3ccccc3)[C@]3(O)C[C@H](OC(=O)[C@H](O)[C@@H](NC(=O)c4ccccc4)c4ccccc4)C(C)=C1C3(C)C)[C@]1(OC(C)=O)CO[C@@H]1C[C@@H]2O + CN(C)c1ccc(Nc2c3ccc(NC(=O)CCN4CCCC4)cc3nc3cc(NC(=O)CCN4CCCC4)ccc23)cc1
active: viability, T/C [2] 6.36% | viability, T/C [3] 5.48% | viability, T/C [4] 3.71% | viability, T/C [5] 4.17% | viability, T/C [6] 5.39% | viability, T/C [7] 9.42% | viability, T/C [8] 5.98% | viability, T/C [9] 5.19% | viability, T/C [10] 3.91% | viability, T/C [11] 4.27% | viability, T/C [12] 5.02% | viability, T/C [13] 8.92% | viability, T/C [14] 5.75% | viability, T/C [15] 5.24% | viability, T/C [16] 2.54% | viability, T/C [17] 3.86% | viability, T/C [18] 5.06% | viability, T/C [19] 7.08% | viability, T/C [20] 5.92% | viability, T/C [21] 5.25% | viability, T/C [22] 3.52% | viability, T/C [23] 4.82% | viability, T/C [24] 5.09% | viability, T/C [25] 6.77% | viability, T/C [26] 5.36% | viability, T/C [27] 6.1% | viability, T/C [28] 5.09% | viability, T/C [29] 4.3% | viability, T/C [30] 5.84% | viability, T/C [32] 6.08% | viability, T/C [33] 5.52% | viability, T/C [34] 4.61% | viability, T/C [35] 4.57% | viability, T/C [36] 5.48%
inactive: viability, T/C [1] 10.1% | viability, T/C [31] 10.1%
< 31.6 nM: IC50 (second compound 0.0316 µM) | IC50 (second compound 0.1 µM) | IC50 (second compound 0.316 µM) | IC50 (second compound 1 µM) | IC50 (second compound 3.16 µM) | IC50 (second compound 10 µM)

CC(C)(O)C1CCC(Nc2ccc3ncc(-c4cccc(C(F)(F)F)c4)n3n2)CC1 (centres undefined) + CN(C)c1ccc(Nc2c3ccc(NC(=O)CCN4CCCC4)cc3nc3cc(NC(=O)CCN4CCCC4)ccc23)cc1
inactive: viability, T/C [1] 102% | viability, T/C [2] 100% | viability, T/C [3] 111% | viability, T/C [4] 88.4% | viability, T/C [5] 35.7% | viability, T/C [6] 64.8% | viability, T/C [7] 98% | viability, T/C [8] 101% | viability, T/C [9] 90.3% | viability, T/C [10] 95.9% | viability, T/C [11] 39.9% | viability, T/C [12] 59.2% | viability, T/C [13] 97.5% | viability, T/C [14] 97% | viability, T/C [15] 86.8% | viability, T/C [16] 97.1% | viability, T/C [17] 33.4% | viability, T/C [18] 47.3% | viability, T/C [19] 92.9% | viability, T/C [20] 103% | viability, T/C [21] 95.8% | viability, T/C [22] 93.5% | viability, T/C [23] 28.9% | viability, T/C [24] 35.1% | viability, T/C [25] 96.5% | viability, T/C [26] 97.3% | viability, T/C [27] 87.9% | viability, T/C [28] 83.3% | viability, T/C [29] 31.6% | viability, T/C [30] 23.2% | viability, T/C [31] 96% | viability, T/C [32] 102% | viability, T/C [33] 87.2% | viability, T/C [34] 58.5%
2100 nM: IC50 (second compound 3.16 µM)
2570 nM: IC50 (second compound 0.316 µM)
3130 nM: IC50 (second compound 0.1 µM)
2260 nM: IC50 (second compound 1 µM)
1170 nM: IC50 (second compound 10 µM)
active: viability, T/C [35] 5.62% | viability, T/C [36] 2.44%
> 10000 nM: IC50 (second compound 0.0316 µM)
